The values below come from publication PMC10614203, “Synthesis, Structure–Activity Relationships, Radiofluorination, and Biological Evaluation of [^18F]RM365, a Novel Radioligand for Imaging the Human Cannabinoid Receptor Type 2 (CB2R) in the Brain with PET” (Journal of Medicinal Chemistry, 2023).

Details of data set [1]: species or system mouse. Conditions: female, in vivo. From the text:
The biodistribution of [^18F]RM365 was investigated in vivo in mice (n = 4) and rats (n = 2) by dynamic PET imaging studies.
Among others, increasing activity in the duodenum over time and accumulation in the brown adipose tissue (BAT) were observed (Figure S10). In contrast, a slow washout from the salivary glands, muscle, bones, and kidneys could be observed. An initial comparably high TAC peak value with a SUVmean > 4 in the liver, left ventricle (blood), heart wall, and lung followed by a fast washout and a subsequent slower washout phase could be observed. Furthermore, we conclude a mainly hepatic excretion of the activity, as shown by the liver and jejunum TACs in both species and a bladder activity of 0.24 ± 0.19% of injected dose at 60 min in mice (Figures S8 and S10).
In vivo biodistribution studies of [^18F]RM365 were performed in female CD-1 mice (n = 4, 31 ± 3 g) and female Wistar rats (n = 4, 150 ± 11 g). For the uptake studies into the brain, male Wistar rats carrying the stereotactically injected AAV2/7-CaMKII0.4-intron-hCB2R(D80N) (right striatum) and AAV2/7-CaMKII0.4-intron-3flag-eGFP (control/contralateral, left striatum) were used (n = 6; bodyweights were 260 ± 11 g). Data were assessed by dynamic small animal PET (Nanoscan, Mediso, Budapest, Hungary) in 60 min recordings, followed by T1-weighted (GRE, TR/TE = 15.0/2.4 ms, 252/252, FA = 25°) MR imaging with whole-body coils for anatomical correlation and attenuation correction.
The PET scans were performed 3−4 months after the stereotactic injections. […] Nonparametric (semiquantitative) analysis of achieved time–activity curves (TACs) was performed with Microsoft Excel to determine the time to peak, the TAC peak value, and the area under the curve (AUC) [drawing 1] where c (radioactivity) is expressed as the standardized uptake value normalized to the bodyweight in g (SUV). […] Area under the curves (AUCs) and corresponding 95% confidence intervals (CIs, 95%) were calculated with GraphPad Prism (v.8.2) following the assumptions described by Gagnon et al.[39]

The nature of data set [2]: Lipophilicity log D7.4, shake flask method, n-octanol/PBS. In kind it is physicochemical. Conditions: n-octanol/PBS 0.01 M, pH 7.4, room temperature. As for the experimental part:
The most efficient protocol for the manual radiosynthesis of [^18F]RM365 was transferred to an automated synthesis module (Elysia-Raytest radiosynthesizer). For the biological evaluation, [^18F]RM365 was obtained with a moderate radiochemical yield of about 5% and high radiochemical purities (>99%), molar activity of about 80 GBq/μmol in a total synthesis time of 60 min (n = 6) starting with activities ranging from 8 to 13 GBq. […] RP and chiral HPLC analysis of the final product coeluted with the corresponding reference compound RM365 confirmed the identity and enantiopurity of the radioligand (Figure 5B). A log D7.4 of 3.0 ± 0.1 was determined by the shake flask method.[80],[81]
Log D7.4 of [^18F]RM365 was experimentally determined in n-octanol/PBS, 0.01 M, pH 7.4, at room temperature by the shake flask method. The measurement was performed twice in triplicate.[87]

Molecules are shown by their SMILES.

Turning to `CC1(C)Cc2ccc(C#N)cc2[C@@H]1NC(=O)c1cc2cc([18F])ccc2[nH]1` [[^18F]RM365], the “initial TAC peak value (SUVmean)” value in data set [1] (CD-1 (mice), Wistar (rats), mouse) is reported as greater than 4. In data set [1] (CD-1, mouse), this compound registered an SUV in spleen of 0.7 ± 0.1. For the same compound, in data set [1] (CD-1, mouse, 60 min), the bladder activity is listed as 0.24 ± 0.19 % of injected dose. Besides, in data set [2], the logD (in general, lipophilicity at a set pH, counting ionised and neutral species) came out at 3 ± 0.1.
